In US20260240869A1, “ANTIPSEUDOMONAL FUSIDIC ACID COMPOUNDS” (priority 2022, published 2026):
≈ marks a conversion by molar mass, not a printed value. Read-outs that look alike come from different tables or passages of the source.

How the values were obtained:
E. coli MG1655 = assay: MIC, E. coli MG1655; assay type: cell-based; conditions: Escherichia coli, MG1655
Procedure: (§1) Antimicrobial Susceptibility Tests. Susceptibility testing was performed in biological triplicate, using the microdilution broth method as outlined by the Clinical and Laboratory Standards Institute. Bacteria were cultured with cation-adjusted Meuller-Hinton broth (Sigma-Aldrich; catalogue number: 90922) or Luria-Bertani (LB) broth (Lennox) in round-bottom 96-well plates (Corning; catalogue number: 3788).

[1] = system: clinical isolates of P. aeruginosa; assay: MIC against panel of clinical isolates of P. aeruginosa; assay type: cell-based, Pseudomonas aeruginosa; conditions: for MIC: Pseudomonas aeruginosa, read-out: MIC
Procedure: as §1

[2] = system: hyperporinated P. aeruginosa A6 efflux deficient strain (PAO1 pore-A6); assay: microbe, parasite or virus in culture; assay type: cell-based; conditions: Pseudomonas aeruginosa, PAO1, read-out: MIC against PAO1 pore-A6
Procedure: as §1

Question: With `CC(=O)O[C@H]1C[C@@]2(C)[C@@H](C[C@@H](O)[C@H]3[C@@]4(C)CC[C@@H](O)[C@@H](C)[C@@H]4CC[C@@]32C)/C1=C(\CCC=C(C)C)C(=O)O` [FA, Fusidic acid] as the molecule, how does the MIC (E. coli MG1655; CLSI (Table 8), read-out: E. coli MG1655 MIC) read?
Answer: 512 µg/mL (≈ 991 µM)

Question: And the MIC (E. coli MG1655; Table 9, read-out: MIC E. coli MG1655)?
Answer: 512 µg/mL (≈ 991 µM)

Question: What about the “activity (MIC) against a panel of 75 clinical isolates of P. aeruginosa” value [1] of the same molecule?
Answer: essentially no antibacterial activity

Question: And the MIC ([1]; AR Bank Isolate # 0054)?
Answer: > 1020 µg/mL

Question: And the MIC ([1]; AR Bank Isolate # 0064)?
Answer: > 1020 µg/mL

Question: And the MIC ([1]; AR Bank Isolate # 0090)?
Answer: > 1020 µg/mL

Question: What about the MIC ([1]; AR Bank Isolate # 0092) of the same molecule?
Answer: > 1020 µg/mL

Question: And the MIC ([1]; AR Bank Isolate # 0095)?
Answer: > 1020 µg/mL

Question: And the MIC ([1]; AR Bank Isolate # 0100)?
Answer: > 1020 µg/mL

Question: What about the MIC ([1]; AR Bank Isolate # 0103) of the same molecule?
Answer: > 1020 µg/mL

Question: And the MIC ([1]; AR Bank Isolate # 0110)?
Answer: > 1020 µg/mL

Question: What about the MIC ([1]; AR Bank Isolate # 0229) of the same molecule?
Answer: > 1020 µg/mL

Question: And the MIC ([1]; AR Bank Isolate # 0230)?
Answer: > 1020 µg/mL

Question: And the MIC ([1]; AR Bank Isolate # 0231)?
Answer: > 1020 µg/mL

Question: And the MIC ([1]; AR Bank Isolate # 0232)?
Answer: > 1020 µg/mL

Question: And the MIC ([1]; AR Bank Isolate # 0233)?
Answer: > 1020 µg/mL

Question: And the MIC ([1]; AR Bank Isolate # 0234)?
Answer: 1020 µg/mL (≈ 1980 µM)

Question: What about the MIC ([1]; AR Bank Isolate # 0235) of the same molecule?
Answer: > 1020 µg/mL

Question: What about the MIC ([1]; AR Bank Isolate # 0236) of the same molecule?
Answer: > 1020 µg/mL

Question: And the MIC ([1]; AR Bank Isolate # 0237)?
Answer: > 1020 µg/mL

Question: What about the MIC ([1]; AR Bank Isolate # 0239) of the same molecule?
Answer: > 1020 µg/mL

Question: And the MIC ([1]; AR Bank Isolate # 0240)?
Answer: > 1020 µg/mL

Question: And the MIC ([1]; AR Bank Isolate # 0241)?
Answer: > 1020 µg/mL

Question: And the MIC ([1]; AR Bank Isolate # 0242)?
Answer: > 1020 µg/mL

Question: What about the MIC ([1]; AR Bank Isolate # 0243) of the same molecule?
Answer: > 1020 µg/mL

Question: And the MIC ([1]; AR Bank Isolate # 0244)?
Answer: > 1020 µg/mL

Question: What about the MIC ([1]; AR Bank Isolate # 0245) of the same molecule?
Answer: > 1020 µg/mL

Question: What about the MIC ([1]; AR Bank Isolate # 0246) of the same molecule?
Answer: 1020 µg/mL (≈ 1980 µM)

Question: And the MIC ([1]; AR Bank Isolate # 0248)?
Answer: > 1020 µg/mL

Question: What about the MIC ([1]; AR Bank Isolate # 0250) of the same molecule?
Answer: > 1020 µg/mL

Question: And the MIC ([1]; AR Bank Isolate # 0252)?
Answer: > 1020 µg/mL

Question: And the MIC ([1]; AR Bank Isolate # 0254)?
Answer: > 1020 µg/mL

Question: And the MIC ([1]; AR Bank Isolate # 0265)?
Answer: > 1020 µg/mL

Question: What about the MIC ([1]; AR Bank Isolate # 0763) of the same molecule?
Answer: > 1020 µg/mL

Question: And the MIC ([1]; AR Bank Isolate # 0767)?
Answer: > 1020 µg/mL

Question: And the MIC ([1]; AR Bank Isolate # 0769)?
Answer: > 1020 µg/mL

Question: What about the MIC ([1]; AR Bank Isolate # 0772) of the same molecule?
Answer: > 1020 µg/mL

Question: And the MIC ([1]; Carle Isolate ID # Cl-02)?
Answer: 1020 µg/mL (≈ 1980 µM)

Question: And the MIC ([1]; Carle Isolate ID # Cl-03)?
Answer: 1020 µg/mL (≈ 1980 µM)

Question: And the MIC ([1]; Carle Isolate ID # Cl-04)?
Answer: > 1020 µg/mL

Question: What about the MIC ([1]; Carle Isolate ID # Cl-05) of the same molecule?
Answer: > 1020 µg/mL

Question: And the MIC ([1]; Carle Isolate ID # Cl-06)?
Answer: > 1020 µg/mL

Question: What about the MIC ([1]; Carle Isolate ID # Cl-07) of the same molecule?
Answer: > 1020 µg/mL

Question: And the MIC ([1]; Carle Isolate ID # Cl-08)?
Answer: > 1020 µg/mL

Question: And the MIC ([1]; Carle Isolate ID # Cl-09)?
Answer: > 1020 µg/mL

Question: And the MIC ([1]; Carle Isolate ID # Cl-10)?
Answer: > 1020 µg/mL

Question: What about the MIC ([1]; Carle Isolate ID # Cl-11) of the same molecule?
Answer: > 1020 µg/mL

Question: What about the MIC ([1]; Carle Isolate ID # Cl-12) of the same molecule?
Answer: > 1020 µg/mL

Question: What about the MIC ([1]; Carle Isolate ID # Cl-13) of the same molecule?
Answer: > 1020 µg/mL

Question: What about the MIC ([1]; Carle Isolate ID # Cl-14) of the same molecule?
Answer: > 1020 µg/mL

Question: And the MIC ([1]; Carle Isolate ID # Cl-15)?
Answer: > 1020 µg/mL

Question: And the MIC ([1]; Carle Isolate ID # Cl-19)?
Answer: > 1020 µg/mL

Question: What about the MIC ([1]; Cubist Strain ID # 996) of the same molecule?
Answer: > 1020 µg/mL

Question: What about the MIC ([1]; Cubist Strain ID # 997) of the same molecule?
Answer: > 1020 µg/mL

Question: And the MIC ([1]; Cubist Strain ID # 998)?
Answer: 1020 µg/mL (≈ 1980 µM)

Question: What about the MIC ([1]; Cubist Strain ID # 999) of the same molecule?
Answer: > 1020 µg/mL

Question: And the MIC ([1]; Cubist Strain ID # 1000)?
Answer: > 1020 µg/mL

Question: And the MIC ([1]; Cubist Strain ID # 1001)?
Answer: > 1020 µg/mL

Question: And the MIC ([1]; Cubist Strain ID # 1174)?
Answer: > 1020 µg/mL

Question: What about the MIC ([1]; Cubist Strain ID # 1175) of the same molecule?
Answer: > 1020 µg/mL

Question: What about the MIC ([1]; Cubist Strain ID # 1176) of the same molecule?
Answer: > 1020 µg/mL

Question: And the MIC ([1]; Cubist Strain ID # 1280)?
Answer: > 1020 µg/mL

Question: What about the MIC ([1]; Cubist Strain ID # 1282) of the same molecule?
Answer: > 1020 µg/mL

Question: And the MIC ([1]; Cubist Strain ID # 1283)?
Answer: > 1020 µg/mL

Question: And the MIC ([1]; Cubist Strain ID # 1284)?
Answer: > 1020 µg/mL

Question: And the MIC ([1]; Cubist Strain ID # 1586)?
Answer: > 1020 µg/mL

Question: And the MIC ([1]; Cubist Strain ID # 1590)?
Answer: > 1020 µg/mL

Question: What about the MIC ([1]; Cubist Strain ID # 1591) of the same molecule?
Answer: > 1020 µg/mL

Question: And the MIC ([1]; Cubist Strain ID # 1592)?
Answer: > 1020 µg/mL

Question: What about the MIC ([1]; Cubist Strain ID # 1905) of the same molecule?
Answer: > 1020 µg/mL

Question: What about the MIC ([1]; Cubist Strain ID # 1906) of the same molecule?
Answer: > 1020 µg/mL

Question: And the MIC ([1]; Cubist Strain ID # 2242)?
Answer: > 1020 µg/mL

Question: And the MIC ([1]; Cubist Strain ID # 2243)?
Answer: > 1020 µg/mL

Question: And the MIC ([1]; Cubist Strain ID # 2244)?
Answer: > 1020 µg/mL

Question: And the MIC ([1]; Other strains (ref.) 1113)?
Answer: > 1020 µg/mL

Question: What about the MIC ([1]; Other strains (ref.) 1727) of the same molecule?
Answer: > 1020 µg/mL

Question: What about the MIC [2] of the same molecule?
Answer: 4 µg/mL (≈ 7.74 µM)
